The values that follow come from a melting point compilation (Tetko et al.; mined from patent text by program, amines drawn as free bases though some values may be those of a salt).

`O=[N+]([O-])c1cc(NCCO)ccc1NCC(F)(F)F` came in with a melting point of 93 to 95 °C.

Regarding `COc1ccc(-c2nc(-c3cccn3Cc3ccccc3)[nH]c2-c2ccc(OC)cc2)cc1`, the melting point worked out at 183 °C.

On to `Cc1nc2c(N)nc3cccnc3c2n1Cc1cc(-c2ccc(F)cc2)no1`, for which the melting point was in the range of 239 to 240 °C.

Regarding `CCCCc1ccc(C(=O)O)c(=O)[nH]1`, the melting point came to 149 °C.

The compound `CNC(=O)N1CCN(CC(O)COc2ccccc2)CC1` (centres undefined) displayed a melting point of 91 to 95 °C.

Consider `Ic1cccc(OCc2ccc3ccccc3c2)c1`, for which the melting point lay within 111 to 112 °C.

With `C/C(=N\OC(=O)CN(C)C)[C@H]1CC[C@H]2[C@@H]3CCC4=CC(=O)CC[C@]4(C)[C@H]3CC[C@]12C`, the melting point was 129 to 131 °C.

In turn, `CCCCOC(=O)N[C@H](C(=O)NCCc1ccc(OCC#Cc2ccc(Cl)cc2)c(OC)c1)C(C)C` yielded a melting point of 141 to 142 °C.

`CCOC(=O)Cc1ccc(-c2nc(COc3ccc(COc4nn(-c5ccccc5)cc4/C=C\c4cncn4CC)cc3OC)c(C)o2)cc1` showed a melting point of 85 to 86 °C.

In the case of `Nc1sc2c(c1C(=O)c1ccc(Cl)cc1)CCSC2`, the melting point is 142 to 146 °C.

`[N-]=[N+]=NC(C(=O)O)C1c2ccccc2C=Cc2ccccc21` (centres undefined) registered a melting point of 119 to 120 °C.

Compound `CS(=O)(=O)c1ccc(-n2nc(C(F)(F)F)cc2-c2ccc(-c3cocn3)cc2)cc1` returned a melting point of 175 to 177 °C.

`CCOC(=O)CC(NCCCN(C)C)C(=O)O` (centres undefined) came in with a melting point of 168 to 169 °C.

In turn, `CC(=O)O[C@H]1[C@H](NC(C)=NC#N)c2cc(C#N)ccc2OC1(C)C` (relative stereo) had a melting point of 236 to 238 °C.

`COC(=O)NC1CCC(Nc2ncc3c(N)cc(=O)n(CCCO)c3n2)CC1` (centres undefined): the melting point was in the range of 190 to 191 °C.

Take `CC(C)(C)C(=O)Oc1cc(C(=O)OCC[Si](C)(C)C)cc2oc(-c3ccccc3)cc(=O)c12`: the melting point came to 205 °C.

In turn, `O=C(Oc1ccc(F)cc1)Oc1ccc(F)cc1` had a melting point of 122 to 123 °C.

In turn, `O=C(O)c1cccc(OC(Cl)=CCl)c1` had a melting point of 137 to 141 °C.

Consider `CC1(C)OC[C@@H](CNc2ccc3cc(OCC4CC4)ccc3c2)O1`, for which the melting point lay in the range of 108 to 109 °C.

In turn, `CC(=O)OCC(=O)N1C(C(N)=O)Cc2c([nH]c3ccccc23)C1c1ccccc1` (centres undefined) showed a melting point of 195 to 197 °C.

As for `Nc1cc(F)c(N2CCNCC2)cc1Cl`, the melting point was 110 °C.

Compound `O=C(O)[C@]12CCCC[C@H]1CCc1ccccc12` (relative stereo) showed a melting point of 142 to 144 °C.

The compound `Cc1cc(O)c(SCc2ccccc2)c(=O)o1` came in with a melting point of 128 °C.

In the case of `C=Cc1cc(CNC(=O)NCc2ccc(C(C)(C)C)cc2)cc(C(F)(F)F)c1NS(C)(=O)=O`, the melting point lay within 134 to 136 °C.

`COc1cccc(CNc2n[nH]c3ncnc(Nc4cccc(Cl)c4)c23)c1` registered a melting point of 192 to 193 °C.

Turning to `C#CCn1c(-c2cc(Cl)nc(Cl)c2)nc(OS(=O)(=O)C(F)(F)F)c(CC)c1=O`, the melting point was in the range of 112 to 114 °C.

Consider `N#Cc1c(N)cccc1[N+](=O)[O-]`, for which the melting point lay in the range of 196 to 198 °C.

`O=C1c2cc(Cl)c(Cl)cc2C(=O)N1CCN1CCC(c2noc3cc(F)ccc23)CC1` returned a melting point of 132 to 134 °C.

Take `Cc1cccc(NC(=O)N2CCN(CCc3ccc(-c4cccc(N)n4)cc3)CC2)c1`: the melting point lay within 88 to 94 °C.

The compound `O=C(NCc1cccnc1)c1cc2ccnc(N(Cc3ccccc3)Cc3ccccc3)c2[nH]1` showed a melting point of 105 to 108 °C.

Compound `COc1cc(OC)c2c(-c3ccc4c(c3)OCO4)c3c(cc2c1)C(=O)NC3` yielded a melting point of 252 to 254 °C.

Take `N=C(Nc1ccccc1-c1ccccc1)N1CCC(=NO)CC1`: the melting point fell in the range of 175 to 176 °C.

The compound `Cc1nc2c3c(ccc2n1C)C(=O)N1C(=O)C(C)(C(C)C)N=C31` (centres undefined) yielded a melting point of 258 to 263 °C.

In turn, `CCc1nc2c(cnn2CC)c(NC2CCOCC2)c1CNC(=O)c1cccc(C(=O)NCc2cc(Cl)cc(Br)c2)c1` returned a melting point of 109 to 112 °C.
